According to publication PMC12643354, “From Oxygen to Tellurium: The Impact of the Chalcogen on Nucleophilicities and Basicities of Isochalcogenourea Catalysts” (Angewandte Chemie (International Ed. in English), 2025):
Read-outs that look alike come from different tables or passages of the source. Marks after values point to notes of the source that are not given here.

What was measured:
[1] = Kinetics of IChU reactions with reference electrophile (lil)2CH+ (stopped-flow photometry); type: physicochemical; conditions: E = −10.04, dichloromethane, 20 °C
Text: (§1) In order to systematically investigate the influence of the chalcogen atom on the nucleophilicity of DHPB‐derived IChUs (Ch = O, S, Se, and Te), we utilized Mayr's benzhydrylium methodology.^[ [107] ^]
In accordance with observations in previous studies on ITU reactivity,^[ [119] ^] mixing the strongly colored benzhydrylium tetrafluoroborates 18 with excess IChUs in dichloromethane gave rise to decolorization of the solutions due to the formation of isochalcogenouronium tetrafluoroborates 19, which are colourless (Figure 3a). […] To establish pseudo first‐order conditions and to secure a sufficient decay of the benzhydrylium's absorbance during the course of the reactions, the IChUs were employed at higher concentrations than the benzhydrylium ions. First‐order rate constants k obs (s^−1) were determined by fitting the mono‐exponential decay function in Equation (2) to the decreasing absorbance (A) of 18 during their reaction with the IChUs as exemplified for the reaction of ITeU3 with (ind)2CH^+ in Figure 3b. […]
First‐order rate constants k obs correlated linearly with the IChU concentration. Therefore, second‐order rate constants k 2 (L mol^−1 s^−1) were determined from the slope of the linear regression curves (Figure 3c ^[ [95] ^]). […]

[2] = Kinetics of IChU reactions with reference electrophile (ind)2CH+ (stopped-flow photometry); type: physicochemical; conditions: E = −8.76, dichloromethane, 20 °C
Text: as §1
(§2) In accordance with observations in previous studies on ITU reactivity,^[ [119] ^] mixing the strongly colored benzhydrylium tetrafluoroborates 18 with excess IChUs in dichloromethane gave rise to decolorization of the solutions due to the formation of isochalcogenouronium tetrafluoroborates 19, which are colourless (Figure 3a). Owing to reversibility of the C─N bond formation, generated adducts 19 from the IChU/benzhydrylium reactions were not isolated but characterized by ^1H, ^13C, and ^77Se NMR spectroscopy (the ^77Se nucleus is remarkably sensitive with observed changes of around 100 ppm when comparing the ^77Se resonances of free ISeUs with those of the corresponding selenouronium tetrafluoroborates^[ [95] ^]). The kinetics of the IChU reactions with the reference electrophiles 18 were traced by photometric methods using standard stopped‐flow techniques. To establish pseudo first‐order conditions and to secure a sufficient decay of the benzhydrylium's absorbance during the course of the reactions, the IChUs were employed at higher concentrations than the benzhydrylium ions. First‐order rate constants k obs (s^−1) were determined by fitting the mono‐exponential decay function in Equation (2) to the decreasing absorbance (A) of 18 during their reaction with the IChUs as exemplified for the reaction of ITeU3 with (ind)2CH^+ in Figure 3b. (2) A=A0e^−kobst+C […]
(§3) First‐order rate constants k obs correlated linearly with the IChU concentration. Therefore, second‐order rate constants k 2 (L mol^−1 s^−1) were determined from the slope of the linear regression curves (Figure 3c ^[ [95] ^]). Second‐order rate constants k 2 for all kinetically investigated reactions of DHPB‐derived IChUs (Ch = O, S, Se, and Te) with benzhydrylium ions 18 are gathered in Table 1.
(§4) Apart from CH2Cl2 also MeCN and THF are solvents that are commonly employed in reactions involving isochalcogenoureas. […]

[3] = Kinetics of IChU reactions with reference electrophile (pyr)2CH+ (stopped-flow photometry); type: physicochemical; conditions: E = −7.69, dichloromethane, 20 °C
Text: as §1, §2, §3, §4

[4] = Kinetics of IChU reactions with reference electrophile (dma)2CH+ (stopped-flow photometry); type: physicochemical; conditions: E = −7.02, dichloromethane, 20 °C
Text: as §1, §2, §3, §4

[5] = Mayr nucleophilicity parameters N and sN (benzhydrylium methodology, Mayr-Patz equation); type: physicochemical; conditions: dichloromethane, 20 °C
Text: (1) Mayr-Patz Equation: lgk20^∘C=sN(N+E)
The MPE is a linear‐free‐energy relationship that characterizes electrophiles by the electrophilicity parameter E and nucleophiles by the solvent‐dependent parameters N (nucleophilicity) and s N (sensitivity toward changes in the electrophile reactivity). By using the MPE (Equation (1)), the construction of comprehensive nucleophilicity and electrophilicity scales becomes possible, which facilitate the comparison of various classes of Lewis base organocatalysts.^[ [110], [111], [112], [113], [114], [115], [116], [117], [118], [119], [120] ^]
as §1
Figure 4 illustrates the linear correlations of the second‐order rate constants (lg k 2) with the electrophilicities E of Ar2CH^+ (18), which makes it possible to determine the Mayr nucleophilicity parameters N (and s N) for the DHPB‐derived IChUs IU3, ITU3, ISeU3, and ITeU3. […]
Figure 4 Linear correlations of second‐order rate constants (lg k 2) for the reactions of IU3, ITU3, ISeU3, and ITeU3 with Ar2CH^+ 18 (in dichloromethane at 20 °C) with the electrophilicities E of 18. The slopes of the linear correlations equal the nucleophile‐dependent sensitivity parameter s N. Intercepts on the abscissa reflect the nucleophilicity parameter N (N = –E at lg k 2 = 0).

[6] = Brønsted basicity pKaH by chemical shift imaging NMR method in DMSO and MeCN
Procedure: Recently, Wiskur's group reported potentiometrically determined pK aH values (that is, the pK a of the conjugate acids) of achiral ITUs based on the BTM and DHPB scaffolds in aqueous media.^[ [89], [128] ^] […] In this work, we applied this NMR spectroscopic method to determine the pK aH values of further IChUs in DMSO and MeCN (Supporting Information).
First, a stock solution containing the analyte, two basic indicators and tetramethyl silane was prepared with the respective solvent (DMSO or acetonitrile).
Then 5-10 mg of acid were weighed into a NMR tube and subsequently covered with glass beads.
Figure S50: 5-10 mg of acid in Figure S51: Cover with 1 mm
Afterwards, 550 μL of the stock solution was layered carefully over the glass beads and the acid. The sample is then put in a 28 °C water bath (for DMSO) for 20 - 24h or left on the bench at 22 °C (for acetonitrile) for 1.5 - 2 h and then the NMR measurement was carried out at 20 °C.
Figure S52: Overlay the acid with the Figure S54: Visualized gradient after stock solution of two indicators and the 18h in DMSO (with Bromthymolblue) […]
Figure S53: Development of gradients in temperated water S145 […]
13.4 Indicator and Acid Data
Table S67: Limiting shifts (δH for the fully protonated and δL for the free base), pKas and abbreviations of indicators and acids in acetonitrile.
Table S68: Limiting shifts (δH for the fully protonated and δL for the free base), pKas and abbreviations of indicators

[7] = Lewis basicity LB from equilibrium constants (photometric titrations) with benzhydrylium ions as reference Lewis acids; type: physicochemical; conditions: in dichloromethane, 20 °C
Procedure: (a) Lewis basicity. Previously, the Mayr group established a series of benzhydrylium ions as C‐centered Lewis acid references to construct a Lewis basicity scale in dichloromethane. Substituting experimentally determined equilibrium constants K (at 20 °C) and reported Lewis acidities LA for the benzhydrylium ions (Figure 7) in Equation (3) enables one to calculate the Lewis basicity (LB) of a Lewis base.^[ [121], [127] ^] (3) lgK(20^∘C)=LA+LB
The reversibility of the formation of adducts 19 (Equation (4)), which was also apparent in the kinetics by significant positive intercepts in several of the k obs versus [IChU] plots (Supporting Information), provided the opportunity to probe the thermodynamics of the C‐N bond‐forming reactions of IChUs with benzhydrylium ions as the reference Lewis acids in more detail.^[ [95] ^] (4) IChU+Ar2CH^+(18)⇌Ar2CH-IChU^+(19)
By assuming the validity of the Beer–Lambert law for dilute solutions, equilibrium constants K (L mol^−1) were determined in photometric titrations according to Equation (5) from the initial absorbance (A 0) of the benzhydrylium ions 18 and the absorbance at equilibrium (A, Equation 5), that is, after addition of a certain amount of an IChU.^[ [109], [110], [111], [112], [113], [114], [115], [119] ^] (5) K=[19]/[18]IChU=A0−A/AIChU

[8] = design: method as in PMID 21568333; conditions: (ind)2CH+, E = −8.76, dichloromethane, 20 °C; cited from earlier work
[9] = design: method as in PMID 21568333; conditions: (thq)2CH+, E = −8.22, dichloromethane, 20 °C; cited from earlier work
[10] = design: method as in PMID 21568333; conditions: (pyr)2CH+, E = −7.69, dichloromethane, 20 °C; cited from earlier work
[11] = design: method as in PMID 21568333; conditions: (dma)2CH+, E = −7.02, dichloromethane, 20 °C; cited from earlier work
[12] = dichloromethane, 20 °C; cited from earlier work
[13] = in dichloromethane, 20 °C; cited from earlier work
[14] = in methanolic aqueous solution (1:5-mixture); cited from earlier work

Row | SMILES | Second-order rate constant k2 exptl [1] [M⁻¹ s⁻¹] | Second-order rate constant k2 exptl [2] [M⁻¹ s⁻¹] | Second-order rate constant k2 exptl [3] [M⁻¹ s⁻¹] | Second-order rate constant k2 exptl [4] [M⁻¹ s⁻¹] | Nucleophile-specific sensitivity parameter sN [5] | Nucleophilicity parameter N [5] | Brønsted basicity pKaH(DMSO) ([6]; in DMSO) | Brønsted basicity pKaH(MeCN) ([6]; in MeCN) | Lewis basicity LB [7] | Second-order rate constant k2 exptl [8] | Second-order rate constant k2 exptl [9] | Second-order rate constant k2 exptl [10] | Second-order rate constant k2 exptl [11] | Nucleophile-specific sensitivity parameter sN [12] | Nucleophilicity parameter N [12] | Lewis basicity LB [13] | Brønsted basicity pKaH(H2O) [14]
1 | c1ccc2c(c1)[Te]C1=NCCCN12 [ITeU3, TeDHPB] | 19400 | 127000 | 731000 | 1.67e+06 | 0.65 | 16.63 | 11.0 | 19.7 | 17.13 | – | – | – | – | – | – | – | –
2 | c1ccc2c(c1)SC1=NCCCN12 [ITU3, DHPB] | – | – | – | – | – | – | – | – | – | 1.11 × 10^4 ^a) L mol^−1 s^−1 | 2.07 × 10^4 ^a) L mol^−1 s^−1 | 7.49 × 10^4 ^a) L mol^−1 s^−1 | 2.29 × 10^5 ^a) L mol^−1 s^−1 | 0.78 | 13.86 | 15.39 | 9.9 ^c)
